# Measured values: PubChem BioAssay AID1963841 (Molecular Pharmacology Branch, DTP, NCI, 2024)
# Test system: 439559-082-T-J2-PDC spheroid viability
# Test: Anticancer human tumor 439559-082-T-J2-PDC patient-derived colon adenocarcinoma cell line growth inhibition [POLQ]
# Details: spheroids with HUVEC and MSC; for IC50: curve of first compound; for viability, T/C: stronger effect = lower value
# Procedure: Multicellular complex tumor spheroid response to Polymerase (POL) inhibitors (novobiocin, ART-558, RP6685) in combination with a variety of drugs and investigational agents in selected tumor cell lines
# The POL inhibitors (novobiocin, ART-558, and RP6685) were evaluated both individually and in combination with standard of care and investigational anticancer small molecules within a complex spheroid model of solid tumors. . Complex spheroids include a stromal component modeled by human endothelial cells (HUVEC) and fibroblasts modeled by human mesenchymal stem cells (MSCs). The concentration ranges selected for each drug and investigational agent were based upon clinically achievable concentrations if the clinical Cmax of the agent was known.
# Compounds. The drugs and investigational agents: novobiocin (NSC847541), ART-558 (NSC835418), RP-6685 (NSC848927), peposertib (NSC802822), ceralasertib (NSC780249), elimusertib (NSC800525), camonsertib (NSC841442), AZD-1390 (NSC803789), olaparib (NSC753686), talazoparib (NSC767125), rucaparib (NSC756644), sotorasib (NSC818433), MRTX-1133 (NSC836407), SN-38 (NSC673596), topotecan (NSC609699), epotoside (NSC141540), doxorubicin (NSC123127), gemcitabine (NSC613327), 5-fluorouracil (NSC19893), paclitaxel (NSC125973), vemurafenib (NSC761431), MSA-2 (NSC828583), SN-011 (NSC837082), adavosertib (NSC754352), prexasertib (NSC758257), carboplatin (NSC241240) and oxaliplatin (NSC266046), were obtained from the National Cancer Institute (NCI) Developmental Therapeutics Program Chemical Repository (21). The FDA-approved anticancer drug set is available from the Developmental Therapeutics Program at https://dtp.cancer.gov/organization/dscb/obtaining/. […] The stock solutions were prepared in dimethyl sulfoxide (DMSO, Sigma-Aldrich, St. Louis, MO, cat. D2650), except for the platinum compounds which were prepared in saline (Quality Biological, Gaithersburg, MD, cat. 114-055-101), at 800-fold the tested concentration and stored at -70 degrees C prior to their use. All drugs and investigational agents were tested over a range starting from a high concentration at or near the clinical Cmax and decreasing in half-log increments. If the clinical Cmax for an agent had not been determined, the highest concentration tested was 10 microM, except for SN-38, which was tested at a high concentration of 1 microM.
# Cell Culture. All cells were maintained in an incubator at 37 degrees C and 5% CO2 with 95% humidity. The PDC lines were cultured according to standard operating procedures established by the NCI PDMR (https://pdmr.cancer.gov). Table 3 of the manuscript, lists the cell lines along with the number of the three cell types plated to form the mct-spheroids and media for tumor cell growth. After thawing, all PDC lines, except 997537-175-T-J1-PDC and 415267-285-R-J2-PDC, were cultured in Matrigel-coated flasks prepared with a working solution of 1X Ham's F-12 nutrient mix, without supplementation (Thermo Fisher Scientific, cat. 11765054), 100 U/mL penicillin-streptomycin (Thermo Fisher Scientific, cat. 15140122), and 2.5% Matrigel (Corning Inc., Corning, NY, cat. 354248) for the first three passages. The two PDC lines 997537-175-T-J1-PDC and 415267-285-R-J2-PDC were cultured on uncoated flasks. The 857933-349-R-J2-PDC line was cultured in 6C/Colon 1B media containing advanced DMEM/F-12 (Thermo Fisher Scientific, cat. 12634028), 10 mM HEPES (Thermo Fisher Scientific, cat. 15630080), 1X GlutaMAX supplement (Thermo Fisher Scientific, cat. 35050061), 0.1 mg/mL primocin (InvivoGen, San Diego, CA, cat. ant-pm-2), 10% defined fetal bovine serum, heat inactivated (HyClone Laboratories Inc., Logan, UT, cat. SH30070.03HI), 50% L-WRN conditioned media (ATCC, cat. CRL-3276), 1.25 mM N-Acetyl-L-cysteine (Sigma-Aldrich, cat. A9165), 10 mM nicotinamide (Sigma-Aldrich, cat. N0636), 1X B-27 supplement (Thermo Fisher Scientific, cat. 17504044), 1X N-2 supplement (Thermo Fisher Scientific, cat. […]
# [1] = second compound 0.0316 µM, first compound 0.0316 µM
# [2] = second compound 0.0316 µM, first compound 0.1 µM
# [3] = second compound 0.0316 µM, first compound 0.316 µM
# [4] = second compound 0.0316 µM, first compound 1 µM
# [5] = second compound 0.1 µM, first compound 0.0316 µM
# [6] = second compound 0.1 µM, first compound 0.1 µM
# [7] = second compound 0.1 µM, first compound 0.316 µM
# [8] = second compound 0.1 µM, first compound 1 µM
# [9] = second compound 0.316 µM, first compound 0.0316 µM
# [10] = second compound 0.316 µM, first compound 0.1 µM
# [11] = second compound 0.316 µM, first compound 0.316 µM
# [12] = second compound 0.316 µM, first compound 1 µM
# [13] = second compound 1 µM, first compound 0.0316 µM
# [14] = second compound 1 µM, first compound 0.1 µM
# [15] = second compound 1 µM, first compound 0.316 µM
# [16] = second compound 1 µM, first compound 1 µM
# [17] = second compound 3.16 µM, first compound 0.0316 µM
# [18] = second compound 3.16 µM, first compound 0.1 µM
# [19] = second compound 3.16 µM, first compound 0.316 µM
# [20] = second compound 3.16 µM, first compound 1 µM
# [21] = second compound 10 µM, first compound 0.0316 µM
# [22] = second compound 10 µM, first compound 0.1 µM
# [23] = second compound 10 µM, first compound 0.316 µM
# [24] = second compound 10 µM, first compound 1 µM
# 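Also: spheroids exposed to compounds for seven days before readout.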
# 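For viability, T/C in this document: 100% = DMSO vehicle control viability.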
compound,measurement,setting,value
COc1ccc([C@@H](O)c2cc(-c3ncnc4cc(N5CCOCC5)ccc34)c(F)cc2Cl)nn1 + COC1C(OC(N)=O)C(O)C(Oc2ccc3c(O)c(NC(=O)c4ccc(O)c(CC=C(C)C)c4)c(=O)oc3c2C)OC1(C)C,IC50,second compound 0.0316 µM,> 10000 nM
same,IC50,second compound 0.1 µM,> 10000 nM
same,IC50,second compound 0.316 µM,> 10000 nM
same,IC50,second compound 1 µM,> 10000 nM
same,IC50,second compound 3.16 µM,> 10000 nM
same,IC50,second compound 10 µM,> 10000 nM
same,"viability, T/C",[1],101%
same,"viability, T/C",[2],96.5%
same,"viability, T/C",[3],99.1%
same,"viability, T/C",[4],95.1%
same,"viability, T/C","second compound 0.0316 µM, first compound 3.16 µM",90.7%
same,"viability, T/C","second compound 0.0316 µM, first compound 10 µM",77.3%
same,"viability, T/C",[5],109%
same,"viability, T/C",[6],96.4%
same,"viability, T/C",[7],93.5%
same,"viability, T/C",[8],95.1%
same,"viability, T/C","second compound 0.1 µM, first compound 3.16 µM",83.3%
same,"viability, T/C","second compound 0.1 µM, first compound 10 µM",71.7%
same,"viability, T/C",[9],107%
same,"viability, T/C",[10],101%
same,"viability, T/C",[11],92.6%
same,"viability, T/C",[12],91.2%
same,"viability, T/C","second compound 0.316 µM, first compound 3.16 µM",89.9%
same,"viability, T/C","second compound 0.316 µM, first compound 10 µM",74.3%
same,"viability, T/C",[13],100%
same,"viability, T/C",[14],94%
same,"viability, T/C",[15],92.9%
same,"viability, T/C",[16],87.9%
same,"viability, T/C","second compound 1 µM, first compound 3.16 µM",86.5%
same,"viability, T/C","second compound 1 µM, first compound 10 µM",70.9%
same,"viability, T/C",[17],96.6%
same,"viability, T/C",[18],91.8%
same,"viability, T/C",[19],97.7%
same,"viability, T/C",[20],92%
same,"viability, T/C","second compound 3.16 µM, first compound 3.16 µM",82.3%
same,"viability, T/C","second compound 3.16 µM, first compound 10 µM",79.5%
same,"viability, T/C",[21],102%
same,"viability, T/C",[22],99.9%
same,"viability, T/C",[23],86.5%
same,"viability, T/C",[24],86.4%
same,"viability, T/C","second compound 10 µM, first compound 3.16 µM",78%
same,"viability, T/C","second compound 10 µM, first compound 10 µM",76.5%
CCc1c2c(nc3ccc(O)cc13)-c1cc3c(c(=O)n1C2)COC(=O)[C@]3(O)CC + Cc1cccc(N(C)C(=O)C2C(O)CCN2c2nc(C)cc(C(F)(F)F)c2C#N)c1,IC50,second compound 0.0316 µM,739 nM
same,IC50,second compound 0.1 µM,705 nM
same,IC50,second compound 0.316 µM,698 nM
same,IC50,second compound 1 µM,708 nM
same,IC50,second compound 3.16 µM,968 nM
same,IC50,second compound 10 µM,702 nM
same,"viability, T/C","second compound 0.0316 µM, first compound 0.00316 µM",92.9%
same,"viability, T/C","second compound 0.0316 µM, first compound 0.01 µM",82.2%
same,"viability, T/C",[1],70.8%
same,"viability, T/C",[2],74.7%
same,"viability, T/C",[3],64%
same,"viability, T/C",[4],43.2%
same,"viability, T/C","second compound 0.1 µM, first compound 0.00316 µM",90.9%
same,"viability, T/C","second compound 0.1 µM, first compound 0.01 µM",87%
same,"viability, T/C",[5],74.5%
same,"viability, T/C",[6],68.3%
same,"viability, T/C",[7],65.7%
same,"viability, T/C",[8],42.8%
same,"viability, T/C","second compound 0.316 µM, first compound 0.00316 µM",95.3%
same,"viability, T/C","second compound 0.316 µM, first compound 0.01 µM",82.2%
same,"viability, T/C",[9],76.3%
same,"viability, T/C",[10],70.6%
same,"viability, T/C",[11],63%
same,"viability, T/C",[12],42.9%
same,"viability, T/C","second compound 1 µM, first compound 0.00316 µM",90.9%
same,"viability, T/C","second compound 1 µM, first compound 0.01 µM",90.9%
same,"viability, T/C",[13],74%
same,"viability, T/C",[14],67.1%
same,"viability, T/C",[15],62.5%
same,"viability, T/C",[16],44.9%
same,"viability, T/C","second compound 3.16 µM, first compound 0.00316 µM",90.3%
same,"viability, T/C","second compound 3.16 µM, first compound 0.01 µM",76.8%
same,"viability, T/C",[17],72.1%
same,"viability, T/C",[18],71%
same,"viability, T/C",[19],62.8%
same,"viability, T/C",[20],47.2%
same,"viability, T/C","second compound 10 µM, first compound 0.00316 µM",80.6%
same,"viability, T/C","second compound 10 µM, first compound 0.01 µM",76.3%
same,"viability, T/C",[21],66.9%
same,"viability, T/C",[22],68.4%
same,"viability, T/C",[23],60.5%
same,"viability, T/C",[24],44.9%
